Results reported in patent US20220125877A1, “METHOD FOR TREATING COLORECTAL CANCER” (SUN YAT-SEN UNIVERSITY, priority 2019, published 2022).

Key:
Type in all cases: cell-based, human
[1] = system: KRAS (G13D) mutation cells constructed via the CRISPR/Cas9 system; assay: Concentration of metformin in cells by mass spectrometry; conditions: compared with the control cell, FIG. 11C
Source text: (§1) The increase of concentration of metformin in KRAS mutation cells was verified by using the KRAS (G13D) mutation cells constructed via the CRISPR/Cas9 system and the LoVo cell line with stable knock-down KRAS.
(§2) Metformin was used to detect the KRAS (G13D) mutation cells constructed via the CRISPR/Cas9 system and the LoVo cell line with stable knock-down KRAS to collect cell lysis solution at different time points, and the concentration of metformin in the cells was detected by mass spectrometry.

[2] = system: LoVo cell line with stable knock-down KRAS; assay: as above; conditions: relative to LoVo, FIG. 11D
Source text: as §1, §2

[3] = system: LoVo cell line with knock-down KRAS, TET1/2 interfered; assay: Proliferation with TET1/2 interfered; conditions: MATE1 down-regulated once again, FIG. 16G
[4] = system: cyclinD1/RB and AKT/mTOR/4E-BP1 signaling pathways in KRAS (G13D) mutation SW48 cell line; assay: Western blot of signaling pathways; conditions: FIG. 9D
Procedure: (§3) Western blot was used to detect the change of metformin on the related molecules of sroliferative signaling pathways MEK/ERK/cyclin D1/RB and PI3K/AKT/mTOR/4E-BP1, which clarifies the mechanism of metformin in inhibiting the proliferation of KRAS mutation CRC cells.
(§4) 1) Cells were inoculated on a culture dish and cultured to 60% of fusion degree, and treated with the addition of an agent for 24 h.
(§5) 2) Protein was collected, and washed with PBS for 3 times, then added with 100 μl 1 RSDS buffer solution (100 mmol/1 Tris-Cl pH6.8, 2% SDS, 10% glycerinum), and at this time, the cell lysis solution was sticky.
(§6) 3) The cell lysis solution was collected into a 0.5 ml centrifugal tube with a scraper, and cooked for 30 min at 100° C.
(§7) 4) The total protein extractive in the cells was subjected to protein quantification according to a BCA kit process (BIO-RAD company).
(§8) 5) The sample was treated according to a ratio of 9 μl denatured protein sample: 1 μl denatured buffer solution (β-mercaptoethanol (BME), 0.4% Bromphenol Blue), and boiled for 30 min at 100° C. for further use.
(§9) 6) A prepared SDS-PAGE gel (10% separation gel and 5% stacking gel) was taken; samples were added with 40 ug/well, and subjected gel electrophoresis for 30 min at 80V, and gel electrophoresis for 90 min at 120V. […]

[5] = system: 4E-BP1 phosphorylation in LoVo cell line with knock-down KRAS protein; assay: Western blot of signaling pathways; conditions: FIG. 9E
Procedure: as §3, §4, §5, §6, §7, §8, §9

[6] = system: KRAS wildtype colorectal cancer cells; assay: Cell viability, metformin with a gradient concentration; conditions: FIG. 6
Procedure: The cells were inoculated on a plate according to the concentration of 5000 cells/well (48-well plate, 200 μl per well). The cells were treated with different ways according to the experimental requirements, and 10 μl CCK8 solution was added after a period of time. The cells were incubated for 1 h in an incubator; 200 μl supernatant were absorbed into a 96-well ELISA plate to determine OD450 with a microplate reader.
(2) Metformin with a gradient concentration was used in vitro to treat KRAS wildtype colorectal cancer cell lines SW48 and CaCO2, KRAS G13D-mutation colorectal cancer cell lines HCT-116 and LoVo, as well as KRAS G12V-mutation colorectal cancer cell lines SW480 and SW620. In addition, the metformin with a gradient concentration was used to treat the KRAS wildtype colorectal cancer cell line SW48 transfected with KRAS G12V, KRAS G13D and KRAS G12D plasmids.

[7] = system: SW48 KRAS (G13D) cell line; assay: Proliferation / cell cycle in CRISPR/Cas9 KRAS (G13D) cells; conditions: relative to SW48, FIG. 8E
Procedure: 1) The cells were inoculated onto a 6-well plate, and subjected to adherence growth for 12 h, then starvation treatment over the night, and treated with the addition of an agent for 24 h, then the cells were digested and washed for 3 times with PBS and centrifuged to discard supernatant; −20° C. pre-cooled 70% ethanol was added dropwise, and the cells were mixed well by vortex, and immobilized over the night at −20° C.

[8] = system: KRAS G13D, G12D and G12V mutation colorectal cancer cells; assay: Cell viability, metformin with a gradient concentration; conditions: FIG. 6

With CN(C)C(=N)N=C(N)N [metformin] the “concentration of metformin in cells” value [1] was “obviously increased concentration”, the “concentration of metformin in cells” value [2] was “decreases obviously” and the “inhibiting effect on proliferation of tumor cells with TET1/2 interfered” value [3] was “accelerating the inhibiting effect”. The “change of the cyclinD1/RB and AKT/mTOR/4E-BP1 signaling pathways” value [4] was “consistent with the KRAS mutation CRC cells LoVo”, the “inhibiting effect on LoVo protein and 4E-BP1 phosphorylation after interference of KRAS (G13D) expression” value [5] was “down-regulate the inhibiting effect” and the “effect on cell viability” value [6] was “has no effect”. The “inhibiting effect on proliferation of tumor cells with cell cycle after KRAS (G13D) mutation” value [7] was “enhances the inhibiting effect” and the “effect on cell viability” value [8] was “has an inhibiting effect”.
